The source of these data is patent US5719179A, “Compound GEX1” (Kyowa Hakko Kogyo Co., Ltd., priority 1995, dated 1998).

Converted amounts (≈) assume the structure as drawn. Like-named read-outs stand apart in the source and are kept apart here.

The test system of data set [1] is Human Epidermic Cancer A431 Cells. The data set is described as follows: Growth inhibition against Human Epidermic Cancer A431 cells (MTT). It counts as cell-based. The note with it: read-out: 50% growth inhibitory concentration (IC50), A431. The protocol: Growth Inhibition against Human Epidermic Cancer A431 Cells
Human Epidermic Cancer A431 cells were put into a 96-well microtiter plate (Nunc #167008) at 3×10^3 cells/well, and cultured in a 5% CO2 incubator at 37° C. for 24 hours. Each of 3 μg/ml GEX1 compounds was stepwise diluted. Each dilution was put into each well in an amount of 50 μl. The final concentration of the resulting suspension, in the wells of the plate was controlled to be at most 1 μg/ml. The cells were further cultured in the 5% CO2 incubator at 37° C. for 72 hours. Five hours before the termination of the incubation, MTT [3-(4,5-dimethylthiazo-2-yl)-2,5-diphenyltetrazolium bromide, Sigma Co., St. Louis, Mo.] dissolved in a medium as used for the culturing was put into each well in an amount of 50 μl, the final concentration of MTT added in each well being 1 mg/ml. After the culturing, DMSO was added to each well in an amount of 150 μl, followed by vigorous stirring with a plate mixer to completely dissolve crystals of MTT-formazan. The absorbance at 550 nm was measured by using a microplate reader MTP-32 (Corona Electric Co., Ltd.). and the cell growth inhibiting activity of each GEX1 compound tested was expressed in terms of 50% growth inhibitory concentration (IC50).

Data set [2] in a line: Solubility (physicochemical data).
The conditions of data set [3]: JP,A, 6-22770; cited from earlier work.
The mark [4] stands for this setting: A-431, A431 cells, 72 hours, MTT, absorbance at 550 nm.

Take `COC(C(C)O)C(C)C1OC1(C)CC(C)C=CC=C(C)C1OC(CC(=O)OC2OC(C(=O)O)C(O)C(O)C2O)CCC1C` (centres unmarked) [GEX1Q3]: the IC50 in data set [1] (A-431, 72 h) turned out to be 0.02 µg/mL (≈ 0.0325 µM). Besides, in data set [2], the Solubility in chloroform result is “hardly soluble”, the “Solubility in dimethylsulfoxide (DMSO)” value is on record as “Soluble”, the Solubility in hexane result is recorded as “hardly soluble” and the Solubility in methanol result was “Soluble”. In data set [2] (water), the Solubility in water result is “Soluble”.
Turning to `COC(C(C)O)C(C)C1OC1(C)CC(C)C=CC=C(CO)C1OC(CC(=O)O)CCC1C` (centres unmarked) [GEX1Q4], the IC50 in data set [1] (A-431, 72 h) was 0.45 µg/mL (≈ 0.99 µM). In data set [2], the Solubility in chloroform entry was “hardly soluble”, the “Solubility in dimethylsulfoxide (DMSO)” value was “Soluble”, the Solubility in hexane entry is “hardly soluble” and the Solubility in methanol entry is reported as “Soluble”.
For the compound `COC(C(C)O)C(C)C1OC1(C)CC(C)C=CC=C(C)C1OC(CC(=O)O)CC(O)C1C` (centres unmarked) [GEX1Q1], the IC50 in data set [1] (setting [4]) was found to be 0.42 µg/mL (≈ 0.924 µM). Also, in data set [2], the Solubility in chloroform result was “hardly soluble”, the “Solubility in dimethylsulfoxide (DMSO)” value is recorded as “Soluble”, the Solubility in hexane entry is “hardly soluble” and the Solubility in methanol result is listed as “Soluble”.
Take `COC(C(C)O)C(C)C1OC1(C)CC(C)(O)C=CC=C(C)C1OC(CC(=O)O)CCC1C` (centres unmarked) [GEX1Q2]: in data set [1] (A-431, 72 h), the IC50 worked out at 0.23 µg/mL (≈ 0.506 µM). In data set [2], the Solubility in chloroform entry is “hardly soluble”, the “Solubility in dimethylsulfoxide (DMSO)” value is “Soluble”, the Solubility in hexane result is listed as “hardly soluble” and the Solubility in methanol result is reported as “Soluble”.
For `CC(=CC=CC(C)CC1(C)OC1C(C)C(O)C(C)O)C1OC(CC(=O)O)CCC1C` (centres unmarked) [GEX1Q5], the IC50 in data set [1] (setting [4]) was determined as 0.0053 µg/mL (≈ 0.0125 µM). Also, in data set [2], the “Solubility in dimethylsulfoxide (DMSO)” value is on record as “Soluble”, the Solubility in hexane result was “hardly soluble” and the Solubility in methanol entry was “Soluble”.
`COC(C(C)O)C(C)C1OC1(C)CC(C)C=CC=C(C)C1OC(CC(=O)O)CCC1C` (centres unmarked) [TAN-1609]: the antitumor activity entry in data set [3] was “has antitumor activity”.
